Assay results from ChEMBL document CHEMBL3132751, “Crafting precise multivalent architectures” (Medchemcomm, 2013).

Target: T1, CD209 antigen (Homo sapiens, UniProt Q9NNX6)
T1 sequence (Q9NNX6 whole entry): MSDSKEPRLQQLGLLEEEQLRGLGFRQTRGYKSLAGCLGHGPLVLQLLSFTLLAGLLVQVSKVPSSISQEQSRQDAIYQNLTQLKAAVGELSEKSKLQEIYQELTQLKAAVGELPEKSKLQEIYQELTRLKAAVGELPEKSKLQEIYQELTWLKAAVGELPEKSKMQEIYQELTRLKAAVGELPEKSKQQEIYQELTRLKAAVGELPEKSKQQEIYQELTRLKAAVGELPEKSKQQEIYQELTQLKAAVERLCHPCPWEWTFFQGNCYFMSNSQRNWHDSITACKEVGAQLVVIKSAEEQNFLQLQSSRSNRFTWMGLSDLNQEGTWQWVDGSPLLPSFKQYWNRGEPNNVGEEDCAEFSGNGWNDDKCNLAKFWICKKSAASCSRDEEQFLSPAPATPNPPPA
Assay: Binding affinity to DC-SIGN (unknown origin)

Kd | SMILES
8.7 mM | CC(=O)N[C@H](C=O)[C@@H](O)[C@H](O)[C@H](O)CO
6.7 mM | C[C@H](O)[C@@H](O)[C@@H](O)[C@H](O)C=O [L-FUCOSE]
